Data set [1] addresses human phosphodiesterase III (PDE III). Particulars: cited from earlier work.
Data set [2] has as its system human megakaryocytopoiesis. Particulars: cited from earlier work.
For data set [3], the system named is erythroid or myelomonocytic differentiation. Particulars: stimulated by erythropoietin or granulocyte-macrophage colony-stimulating factor; cited from earlier work.
Another data set has as its system platelet count. The conditions noted are these: patients with thrombocythemia secondary to a myeloproliferative disorder; cited from earlier work.
For data set [4] the following is noted: in vivo; cited from earlier work.
The subject of data set [5] is human phosphodiesterase III (PDE III). Description: PDE III inhibition. Type of data set: biochemical. The source says:
In early volunteer trials, the most frequently reported adverse effects AEs other than headache were palpitations, postural dizziness and nausea. During patient studies, the most frequently reported drug-related AEs were headache, palpitations, oedema/fluid retention, nausea/vomiting, diarrhea, dizziness and abdominal pain. These effects are all likely to arise from the secondary, cardiovascular pharmacology associated with anagrelide resulting from its inhibitory effects on human phosphodiesterase III (PDE III). […] Inhibition of myocardial PDE III leads to positive inotropy (increasing of the force of contractions of the heart), increased chronotropy (increase in heart rate), and peripheral vasodilatation. Such cardiovascular manifestations of this inhibition are typically seen with the classical positive inotropes, milrinone and enoximone, and exploited in the short-term acute treatment of congestive heart failure. However, in the treatment of a so-called silent disease (i.e., asymptomatic) such as ET, the cardiovascular side-effects of palpitations and tachycardia associated with anagrelide limit its utility and a significant proportion of patients—reportedly between 25 and 50%—fail to tolerate the drug during long term treatment.

Data set [6] in a line: Pharmacokinetics of anagrelide and its metabolite. Particulars: typical exposures, relative to anagrelide. Type of data set: in vivo, human. An excerpt:
The PDE III inhibitory properties of anagrelide are quite distinct from its platelet lowering anti-megakaryocytic effects. Indeed studies have shown no correlation between potency as a PDE III inhibitor and anti-megakaryocytic effects for anagrelide and its principal pharmacologically active metabolite, 3-hydroxyanagrelide (3-OH anagrelide or 3-HA, formerly known as SPD604 or BCH24426). […] Anagrelide's active metabolite, 3-HA, is present in vivo in amounts greatly exceeding those of the parent drug with typical exposures being 2-3 fold greater. Thus by implication 3-OH anagrelide is likely to be a major contributor to the pharmacological actions of the drug.
The metabolism of anagrelide generally proceeds extremely rapidly, resulting in a less than ideal pharmacokinetic profile of the drug. […] This, combined with the side-effects profile, can lead to poor patient compliance. Furthermore, anagrelide undergoes a large first pass effect (>50%) leading to considerable intersubject variation in achieved exposures and, therefore, potentially variable drug response. Also, exposure to the pharmacologically active metabolite varies dramatically between patients since its formation is dependent on CYP1A, an enzyme whose expression is highly dependent on exposure to inducing agents such as cigarette smoke. […]

Bounds are passed on as bounds.

As to `Cc1[nH]c(=O)c(C#N)cc1-c1ccncc1` [milrinone], the IC50 in data set [1] was 170 to 350 nM.
In the case of `O=C1CN2Cc3c(ccc(Cl)c3Cl)N=C2N1` [Anagrelide, 6,7-dichloro-1,5-dihydroimidazo[2,1-b]-quinazolin-2(3H)-one], the IC50 in data set [2] (TPO-induced, dose-dependent, read-out: estimated IC50, inhibition of TPO-induced megakaryocytopoiesis) is roughly 26 nM; in data set [1], roughly 29 nM. Besides, in data set [3], the “effect on erythroid or myelomonocytic differentiation” value is reported as “does not affect”. Moreover, in the data set with platelet count, the “time to complete response (platelet count ≦600×10^9/L)” value is 4 to 12 weeks. The first pass effect in data set [4] is greater than 50%.
Take `O=C1NC2=Nc3ccc(Cl)c(Cl)c3CN2C1O` (stereo not shown) [3-hydroxyanagrelide]: the “potency as PDE III inhibitor relative to anagrelide” value in data set [5] is listed as “over 40 fold”. In data set [6], the “exposure in vivo relative to parent drug” value is 2-3 fold. In data set [2] (relative to anagrelide), the “potency of inhibition of megakaryocytopoiesis relative to parent drug” value is listed as “no more potent than the parent drug”. Also, the typical half-life in data set [4] was 2.5 h.

(Values after patent US20110152298A1, “IMIDAZO [2,1-B] QUINAZOLIN-2-ONE DERIVATIVES AND THEIR USE AS PLATELET ANTI-AGGREGATIVE AGENTS” (SHIRE LLC, priority 2008, published 2011).)
